pIC50: −log10 of the molar value.

The values below come from US20260091026A1, “METHODS OF TREATING INFLAMMATORY DISEASES” (INTERLINE THERAPEUTICS, INC., priority 2023, published 2026).

One experiment deals with T1, RIPK2 (KD)/XIAP (BIR2) (Homo sapiens, UniProt O43353).
T1 construct: made in house; host or cells: baculovirus-infected Sf9 cells
Description: RIPK2-XIAP binding competition PPI assay (TR-FRET). To be noted: for Emax: 50 nM of GSK583 = -100% activity, read-out: PPI Amax; for pIC50: GST-RIPK2 / His-XIAP (BIR2)-avi, 120 min at 23° C. The method, boiled down:
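After 2 h at 23 °C, complex formation was read as the 665/520 nm emission ratio (337 nm excitation), scaled between uninhibited reaction and 50 nM GSK583. The mix held 1 nM human RIPK2 kinase fragment-GST, 25 nM His-tagged XIAP BIR2 and Tb/XL665 antibodies in pH 7.5 Tris buffer containing vanadate and glycerophosphate.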

For experiment [1], the system named is THP1-Dual cells, NF-κB pathway (SEAP). Description: THP-1 Dual cell SEAP assay (L18-MDP stimulated). Type of experiment: cell-based. To be noted: Homo sapiens, 10 ng/mL L18-MDP, 20-24 h, SEAP readout, read-out: IFNγ THP1 IC50. Summed up:
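IC50 values come from non-linear fits of % inhibition of SEAP, measured as QUANTI-Blue optical density (620-655 nm, 2 h) in media-blanked supernatants. These were taken from THP1-Dual cells treated with compound for 30 min before overnight exposure to 10 ng/mL L18-MDP final at 37 °C.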

T1 sequence (O43353 1-310): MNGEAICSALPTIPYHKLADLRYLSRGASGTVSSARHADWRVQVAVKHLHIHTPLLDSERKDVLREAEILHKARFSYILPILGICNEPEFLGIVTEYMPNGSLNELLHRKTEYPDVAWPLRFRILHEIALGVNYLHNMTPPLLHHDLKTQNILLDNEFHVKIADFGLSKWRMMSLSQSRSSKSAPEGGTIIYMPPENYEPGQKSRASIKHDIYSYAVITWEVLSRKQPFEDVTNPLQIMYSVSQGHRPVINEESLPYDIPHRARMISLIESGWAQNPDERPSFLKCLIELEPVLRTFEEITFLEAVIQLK

Take `COc1cc2ncc(-c3cc(C(=O)NCc4cccc(F)n4)n(C)n3)n2cc1S(=O)(=O)C(C)(C)C` [Example 52, 3-(6-(tert-butylsulfonyl)-7-methoxyimidazo[1,2-a]pyridin-3-yl)-N-((6-fluoropyridin-2-yl)methyl)-1-methyl-1H-pyrazole-5-carboxamide]: at RIPK2 (KD)/XIAP (BIR2), the Emax was at least 80% and the pIC50 is 6.00 to 7.00. For the same compound, the pIC50 in experiment [1] was under 5.60.

Regarding `COc1cc2ncc(-c3cc(C(=O)NCc4cc(F)ccn4)n(C)n3)n2cc1S(=O)(=O)C(C)(C)C` [Example 53, 3-(6-(tert-butylsulfonyl)-7-methoxyimidazo[1,2-a]pyridin-3-yl)-N-((4-fluoropyridin-2-yl)methyl)-1-methyl-1H-pyrazole-5-carboxamide], on RIPK2 (KD)/XIAP (BIR2), the Emax was at least 80%. The pIC50 on RIPK2 (KD)/XIAP (BIR2) is 6.00 to 7.00; in experiment [1], under 5.60.

For `COc1cc2ncc(-c3cc(C(=O)NCc4ncc(F)cc4F)n(C)n3)n2cc1S(=O)(=O)C(C)(C)C` [Example 54, 3-(6-(tert-butylsulfonyl)-7-methoxyimidazo[1,2-a]pyridin-3-yl)-N-((3,5-difluoropyridin-2-yl)methyl)-1-methyl-1H-pyrazole-5-carboxamide], the Emax at RIPK2 (KD)/XIAP (BIR2) is at least 80%. Further, the pIC50 at RIPK2 (KD)/XIAP (BIR2) is 6.00 to 7.00; in experiment [1] it was 5.60 to 6.30.

On to `COc1cc2ncc(-c3cc(C(=O)NC4(c5ncccn5)CC4)n(C)n3)n2cc1S(=O)(=O)C(C)(C)C` [Example 55, 3-(6-(tert-butylsulfonyl)-7-methoxyimidazo[1,2-a]pyridin-3-yl)-1-methyl-N-(1-(pyrimidin-2-yl)cyclopropyl)-1H-pyrazole-5-carboxamide], for which, on RIPK2 (KD)/XIAP (BIR2), the Emax lay within 30 to 55% and the pIC50 was under 6.00. Moreover, in experiment [1], the pIC50 is under 5.60.

Consider `COc1cc2ncc(-c3cc(C(=O)N[C@H](C)c4cn(C)cn4)n(C)n3)n2cc1S(=O)(=O)C(C)(C)C` [Example 56, (R)-3-(6-(tert-butylsulfonyl)-7-methoxyimidazo[1,2-a]pyridin-3-yl)-1-methyl-N-(1-(1-methyl-1H-imidazol-4-yl)ethyl)-1H-pyrazole-5-carboxamide], for which, at RIPK2 (KD)/XIAP (BIR2), the Emax was at least 80% and the pIC50 was 6.00 to 7.00. In addition, in experiment [1], the negative-log IC50 (pIC50) was under 5.60.

For the compound `COc1cc2ncc(-c3cc(C(=O)N[C@@H](C)c4cn(C)cn4)n(C)n3)n2cc1S(=O)(=O)C(C)(C)C` [Example 57, (S)-3-(6-(tert-butylsulfonyl)-7-methoxyimidazo[1,2-a]pyridin-3-yl)-1-methyl-N-(1-(1-methyl-1H-imidazol-4-yl)ethyl)-1H-pyrazole-5-carboxamide], on RIPK2 (KD)/XIAP (BIR2), the Emax was at least 80%. The pIC50 was under 6.00 at RIPK2 (KD)/XIAP (BIR2) and under 5.60 in experiment [1].

For the compound `COc1cn2ncc(-c3cc(C(=O)N[C@H](C)c4ccccn4)n(C)n3)c2cc1C1(F)CCN(C)CC1` [Example 58, (R)-3-(5-(4-fluoro-1-methylpiperidin-4-yl)-6-methoxypyrazolo[1,5-a]pyridin-3-yl)-1-methyl-N-(1-(pyridin-2-yl)ethyl)-1H-pyrazole-5-carboxamide], on RIPK2 (KD)/XIAP (BIR2), the Emax is at least 80%. Moreover, the values for the pIC50 (at RIPK2 (KD)/XIAP (BIR2); in experiment [1]) were 6.00 to 7.00 and 5.60 to 6.30, respectively.

As to `COc1cc2ncc(-c3cc(C(=O)N[C@H](C)c4ccn(C)n4)n(C)n3)n2cc1S(=O)(=O)C(C)(C)C` [Example 59, (R)-3-(6-(tert-butylsulfonyl)-7-methoxyimidazo[1,2-a]pyridin-3-yl)-1-methyl-N-(1-(1-methyl-1H-pyrazol-3-yl)ethyl)-1H-pyrazole-5-carboxamide], on RIPK2 (KD)/XIAP (BIR2), the Emax was at least 80% and the pIC50 is 6.00 to 7.00. Moreover, the pIC50 in experiment [1] was 5.60 to 6.30.

Take `COc1cc2ncc(-c3cc(C(=O)N[C@@H](C)c4ccn(C)n4)n(C)n3)n2cc1S(=O)(=O)C(C)(C)C` [Example 60, (S)-3-(6-(tert-butylsulfonyl)-7-methoxyimidazo[1,2-a]pyridin-3-yl)-1-methyl-N-(1-(1-methyl-1H-pyrazol-3-yl)ethyl)-1H-pyrazole-5-carboxamide]: at RIPK2 (KD)/XIAP (BIR2), the Emax was at least 80% and the pIC50 is under 6.00. The pIC50 in experiment [1] was under 5.60.

On to `CC[C@@H](NC(=O)c1cc(-c2cnc3cc(OC)c(S(=O)(=O)C(C)(C)C)cn23)nn1C)c1ccccn1` [Example 61, (R)-3-(6-(tert-butylsulfonyl)-7-methoxyimidazo[1,2-a]pyridin-3-yl)-1-methyl-N-(1-(pyridin-2-yl)propyl)-1H-pyrazole-5-carboxamide], for which the Emax at RIPK2 (KD)/XIAP (BIR2) is at least 80%. In addition, the results for the pIC50 (on RIPK2 (KD)/XIAP (BIR2); in experiment [1]) were 6.00 to 7.00 and under 5.60, respectively.

In the case of `COc1cc2ncc(-c3cc(C(=O)N[C@@H](c4ccccn4)C(F)(F)F)n(C)n3)n2cc1S(=O)(=O)C(C)(C)C` [Example 62, (S)-3-(6-(tert-butylsulfonyl)-7-methoxyimidazo[1,2-a]pyridin-3-yl)-1-methyl-N-(2,2,2-trifluoro-1-(pyridin-2-yl)ethyl)-1H-pyrazole-5-carboxamide], at RIPK2 (KD)/XIAP (BIR2), the Emax is at least 80% and the pIC50 was 6.00 to 7.00. The pIC50 in experiment [1] is 5.60 to 6.30.

Regarding `COc1cc2ncc(-c3cc(C(=O)N[C@@H]4CCc5cccnc54)n(C)n3)n2cc1S(=O)(=O)C(C)(C)C` [Example 63, (R)-3-(6-(tert-butylsulfonyl)-7-methoxyimidazo[1,2-a]pyridin-3-yl)-N-(6,7-dihydro-5H-cyclopenta[b]pyridin-7-yl)-1-methyl-1H-pyrazole-5-carboxamide], at RIPK2 (KD)/XIAP (BIR2), the Emax is at least 80% and the negative logarithm of the IC50 (pIC50) is 6.00 to 7.00. For the same compound, in experiment [1], the pIC50 is under 5.60.

On to `COc1cc2ncc(-c3cc(C(=O)N[C@H]4CCc5cccnc54)n(C)n3)n2cc1S(=O)(=O)C(C)(C)C` [Example 64, (S)-3-(6-(tert-butylsulfonyl)-7-methoxyimidazo[1,2-a]pyridin-3-yl)-N-(6,7-dihydro-5H-cyclopenta[b]pyridin-7-yl)-1-methyl-1H-pyrazole-5-carboxamide], for which, at RIPK2 (KD)/XIAP (BIR2), the Emax was at least 80% and the pIC50 was 7.00 to 8.00. In experiment [1], the pIC50 is 5.60 to 6.30.

With `COc1cc2ncc(-c3cc(C(=O)NCc4ncccc4C)n(C)n3)n2cc1S(=O)(=O)C(C)(C)C` [Example 65, 3-(6-(tert-butylsulfonyl)-7-methoxyimidazo[1,2-a]pyridin-3-yl)-1-methyl-N-((3-methylpyridin-2-yl)methyl)-1H-pyrazole-5-carboxamide], the Emax at RIPK2 (KD)/XIAP (BIR2) is at least 80%. For the same compound, the results for the pIC50 (on RIPK2 (KD)/XIAP (BIR2); in experiment [1]) were 6.00 to 7.00 and under 5.60, respectively.

In the case of `COc1cc2ncc(-c3cc(C(=O)NCc4ncccn4)n(C)n3)n2cc1S(=O)(=O)C(C)(C)C` [Example 66, 3-(6-(tert-butylsulfonyl)-7-methoxyimidazo[1,2-a]pyridin-3-yl)-1-methyl-N-(pyrimidin-2-ylmethyl)-1H-pyrazole-5-carboxamide], the Emax on RIPK2 (KD)/XIAP (BIR2) is at least 80%. For the same compound, the pIC50 on RIPK2 (KD)/XIAP (BIR2) is 6.00 to 7.00; in experiment [1], 5.60 to 6.30.

As to `COc1cc2ncc(-c3cc(C(=O)NCc4cnccn4)n(C)n3)n2cc1S(=O)(=O)C(C)(C)C` [Example 67, 3-(6-(tert-butylsulfonyl)-7-methoxyimidazo[1,2-a]pyridin-3-yl)-1-methyl-N-(pyrazin-2-ylmethyl)-1H-pyrazole-5-carboxamide], the Emax on RIPK2 (KD)/XIAP (BIR2) lay in the range of 55 to 80%. The pIC50 on RIPK2 (KD)/XIAP (BIR2) was under 6.00; in experiment [1], under 5.60.

On to `COc1cc2ncc(-c3cc(C(=O)NCc4ccncn4)n(C)n3)n2cc1S(=O)(=O)C(C)(C)C` [Example 68, 3-(6-(tert-butylsulfonyl)-7-methoxyimidazo[1,2-a]pyridin-3-yl)-1-methyl-N-(pyrimidin-4-ylmethyl)-1H-pyrazole-5-carboxamide], for which, on RIPK2 (KD)/XIAP (BIR2), the Emax was at most 30% and the pIC50 is under 6.00. For the same compound, the pIC50 in experiment [1] was under 5.60.

On to `COc1cc2ncc(-c3cc(C(=O)NCc4cccnn4)n(C)n3)n2cc1S(=O)(=O)C(C)(C)C` [Example 69, 3-(6-(tert-butylsulfonyl)-7-methoxyimidazo[1,2-a]pyridin-3-yl)-1-methyl-N-(pyridazin-3-ylmethyl)-1H-pyrazole-5-carboxamide], for which the Emax on RIPK2 (KD)/XIAP (BIR2) was at most 30%. The results for the negative-log IC50 (pIC50) (at RIPK2 (KD)/XIAP (BIR2); in experiment [1]) were under 6.00 and under 5.60, respectively.

As for `COc1cc2ncc(-c3cc(C(=O)NCc4ccnn4C)n(C)n3)n2cc1S(=O)(=O)C(C)(C)C` [Example 70, 3-(6-(tert-butylsulfonyl)-7-methoxyimidazo[1,2-a]pyridin-3-yl)-1-methyl-N-((1-methyl-1H-pyrazol-5-yl)methyl)-1H-pyrazole-5-carboxamide], on RIPK2 (KD)/XIAP (BIR2), the Emax is 30 to 55% and the pIC50 is under 6.00. The pIC50 in experiment [1] was under 5.60.

Regarding `COc1cc2ncc(-c3cc(C(=O)NCc4ncccc4Cl)n(C)n3)n2cc1S(=O)(=O)C(C)(C)C` [Example 71, 3-(6-(tert-butylsulfonyl)-7-methoxyimidazo[1,2-a]pyridin-3-yl)-N-((3-chloropyridin-2-yl)methyl)-1-methyl-1H-pyrazole-5-carboxamide], at RIPK2 (KD)/XIAP (BIR2), the Emax is at least 80% and the pIC50 is 7.00 to 8.00. The pIC50 in experiment [1] is 5.60 to 6.30.

`COc1cc2ncc(-c3cc(C(=O)NCc4ncccc4OC)n(C)n3)n2cc1S(=O)(=O)C(C)(C)C` [Example 72, 3-(6-(tert-butylsulfonyl)-7-methoxyimidazo[1,2-a]pyridin-3-yl)-N-((3-methoxypyridin-2-yl)methyl)-1-methyl-1H-pyrazole-5-carboxamide]: at RIPK2 (KD)/XIAP (BIR2), the Emax was at least 80% and the pIC50 is 6.00 to 7.00. In experiment [1], the pIC50 was under 5.60.
